From patent US11560372B2, “Heterocyclic compounds useful as modulators of acetylcholine receptors” (TAKEDA PHARMACEUTICAL COMPANY LIMITED, priority 2017, dated 2023)

Legend:
[1] = target: T1, human M1 receptor (hCHRM1) (Homo sapiens, UniProt P11229); experiment: Measurement of M1 receptor positive allosteric modulator (M1PAM) activity, calcium fluorescence in CHO-K1 cells; assay type: cell-based; settings: for activity (%) at 10 μM: 10 μM test compound, 100% = acetylcholine final concentration 1 μM, 0% = DMSO; for EC50: inflection point of concentration-dependent curve, in the presence of acetylcholine at EC20 concentration (final 0.8-1.0 nM), read-out: IP value
T1 construct: expressed in transfected cells
T1 sequence (P11229 1-460): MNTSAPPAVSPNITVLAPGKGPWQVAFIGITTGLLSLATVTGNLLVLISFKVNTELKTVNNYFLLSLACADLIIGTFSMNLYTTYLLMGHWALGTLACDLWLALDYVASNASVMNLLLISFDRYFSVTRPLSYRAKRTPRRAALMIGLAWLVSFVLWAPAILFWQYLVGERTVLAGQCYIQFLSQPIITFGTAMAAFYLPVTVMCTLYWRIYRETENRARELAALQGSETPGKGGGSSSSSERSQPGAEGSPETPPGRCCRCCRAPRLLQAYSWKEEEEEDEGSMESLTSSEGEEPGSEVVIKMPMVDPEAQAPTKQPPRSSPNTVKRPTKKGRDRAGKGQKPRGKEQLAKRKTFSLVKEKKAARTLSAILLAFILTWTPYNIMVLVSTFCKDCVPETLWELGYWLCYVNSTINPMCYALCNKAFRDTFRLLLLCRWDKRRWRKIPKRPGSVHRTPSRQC
Outline: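 CHO-K1 cells stably expressing human M1 loaded with Fluo-4 AM, then given compound plus acetylcholine at EC20 (final 0.8-1.0 nM). Calcium fluorescence read for 1 min; activity normalized to 1 μM acetylcholine (100%) and DMSO (0%), with IP taken as inflection point of concentration curve.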

[2] = tested on: Male SD rats; experiment: Rat defecation experiment; assay type: in vivo; settings: mean±standard error
Method: Rat Defecation Experiment
Male SD rats (5-6 weeks old) were used after an acclimation period for about 1 week. A test drug (1 mg/kg, 3 mg/kg, or 10 mg/kg) was suspended in 0.5% methylcellulose solution and orally administered at a volume of 5 mL/kg, and the number of feces 2 hr later was counted. Only 0.5% methylcellulose was administered to a solvent administration group.

## Cc1c(Cc2ccc(-c3cn(C)nn3)nc2)cc2c(=O)n([C@H]3CCOC[C@@H]3O)cnc2c1C [Example 2, 1,5-anhydro-2,3-dideoxy-3-(7,8-dimethyl-6-((6-(1-methyl-1H-1,2,3-triazol-4-yl)pyridin-3-yl)methyl)-4-oxoquinazolin-3(4H)-yl)-L-threo-pentitol]
[1]
  activity (%) at 10 μM: 104%
  EC50: 1.5 nM

## CNC(=O)c1ccc(Cc2cc3c(=O)n([C@H]4CCOC[C@@H]4O)cnc3c(C)c2C)cc1F [Example 3, 1,5-anhydro-2,3-dideoxy-3-(6-(3-fluoro-4-(methylcarbamoyl)benzyl)-7,8-dimethyl-4-oxoquinazolin-3(4H)-yl)-L-threo-pentitol]
[2]; 1 mg/kg orally
  number of feces 2 hr later: 7.4 ± 0.7
[2]; 3 mg/kg orally
  number of feces 2 hr later: 7.8 ± 1.4
[1]
  activity (%) at 10 μM: 103%
  EC50: 1 nM

## Cc1nn(C)cc1-c1ccc(Cc2cc3c(=O)n([C@H]4CCOC[C@@H]4O)cnc3c(C)c2C)cn1 [Example 5, 1,5-anhydro-2,3-dideoxy-3-(6-((6-(1,3-dimethyl-1H-pyrazol-4-yl)pyridin-3-yl)methyl)-7,8-dimethyl-4-oxoquinazolin-3(4H)-yl)-L-threo-pentitol]
[1]
  activity (%) at 10 μM: 97%
  EC50: 1.5 nM

## Cc1c(Cc2ccc(-c3cnn(C)c3)nc2)cc2c(=O)n([C@H]3CCOC[C@@H]3O)cnc2c1C [Example 6, 1,5-anhydro-2,3-dideoxy-3-(7,8-dimethyl-6-((6-(1-methyl-1H-pyrazol-4-yl)pyridin-3-yl)methyl)-4-oxoquinazolin-3(4H)-yl)-L-threo-pentitol]
[1]
  activity (%) at 10 μM: 99%
  EC50: 0.96 nM

## CNC(=O)c1ccc(Cc2cc3c(=O)n([C@H]4CCOC[C@@H]4O)nnc3c(Cl)c2C)cc1F [Example 19, 1,5-anhydro-3-(8-chloro-6-(3-fluoro-4-(methylcarbamoyl)benzyl)-7-methyl-4-oxo-1,2,3-benzotriazin-3(4H)-yl)-2,3-dideoxy-L-threo-pentitol]
[1]
  activity (%) at 10 μM: 103%
  EC50: 1.6 nM

## COCCNC(=O)c1ccc(Cc2cc3c(=O)n([C@H]4CCOC[C@@H]4O)cnc3c(C)c2C)cc1F [Example 66, 1,5-anhydro-2,3-dideoxy-3-(6-(3-fluoro-4-((2-methoxyethyl)carbamoyl)benzyl)-7,8-dimethyl-4-oxoquinazolin-3(4H)-yl)-L-threo-pentitol]
[2]; 1 mg/kg orally
  number of feces 2 hr later: 9.9 ± 1.0
[1]
  activity (%) at 10 μM: 106%
  EC50: 1.8 nM

## Cc1c(Cc2ccc(C(=O)NC[C@H]3CCCO3)c(F)c2)cc2c(=O)n([C@H]3CCOC[C@@H]3O)cnc2c1C [Example 81, 1,5-anhydro-2,3-dideoxy-3-(6-(3-fluoro-4-(((2R)-tetrahydrofuran-2-ylmethyl)carbamoyl)benzyl)-7,8-dimethyl-4-oxoquinazolin-3(4H)-yl)-L-threo-pentitol]
[2]; 1 mg/kg orally
  number of feces 2 hr later: 6.9 ± 1.1
[2]; 3 mg/kg orally
  number of feces 2 hr later: 7.0 ± 0.8
[2]; 10 mg/kg orally
  number of feces 2 hr later: 11.5 ± 1.1
[1]
  activity (%) at 10 μM: 110%
  EC50: 3.7 nM
